Read-outs that look alike come from different tables or passages of the source.
Tests used:
[1] = set-up: method as in PMID 26100670; settings: in vitro and in vivo studies; cited from earlier work
[2] = cited from earlier work
[3] = cited from earlier work; remark: listed apart in the source
[4] = Solubility of MG005 and MG010; assay type: physicochemical; settings: in words
[5] = Pharmacokinetics assessments in phase I patients (plasma, steady state); settings: for Tmax,ss: median (range); for AUC: AUC0→τ,ss
Experimental: This was a dual-agent, open-label, phase I study. […] We conducted the trial following the 3 + 3 dose-escalation phase I clinical trial design. […] There were three cohorts and at least […] were enrolled for each dose level. No intra-patient dose escalation was allowed, and each patient’s first dose was at least 5 days apart from the next patient’s first dose. DLTs were assessed during the initial 8-week and 4-week treatment periods for Cohort 1 and Cohorts 2/3, respectively. The criteria for DLTs are listed in Supplementary Table S1. […] The enrolled patients were treated until disease progression.
A plasma concentration–time profile for MG005 as a single agent was established, and PK parameters in terms of the following were also determined: peak plasma concentration (Cmax)/at steady state (Cmax,ss); time to reach peak concentration (Tmax)/at steady state (Tmax,ss); AUC in 1 dosing interval at steady state (AUC0→τ,ss).

[6] = Day 28, Cohort 1: 750 mg QD MG005 plus 200 mg QD sorafenib, mean ± SD
[7] = Day 28, Cohort 2: 1500 mg QD MG005 plus 200 mg QD sorafenib, mean ± SD
[8] = Day 28, Cohort 2: 1500 mg QD MG005 plus 200 mg QD sorafenib
[9] = Day 28, Cohort 3: 750 mg BID MG005 plus 200 mg QD sorafenib, mean ± SD

Question: What does the source list for O=C1Nc2ccc(I)cc2/C1=C/c1cc(Br)c(O)c(Br)c1 [GW5074]?
Answer: mutagenicity and genotoxicity [1]: neither mutagenic nor genotoxic; findings of repeated toxicity studies ([2]; dog, in vivo): did not cause major abnormality except emesis and watery stool; no-observed-adverse-effect-level (NOAEL) ([2]; repeated dosing): highest dose levels tested; findings of repeated toxicity studies ([3]; rat, in vivo): did not cause major abnormality except emesis and watery stool; no-observed-adverse-effect-level (NOAEL) ([3]; repeated dosing): highest dose levels tested; solubility [4]: not satisfactory; solubility ([4]; listed as MG005): poor solubility; AUC0→τ,ss [5, 6]: 5639.9 ± 2675.9 ng·h/mL; Cmax,ss [5, 6]: 685.6 ± 335.4 ng/mL; Tmax,ss ([5]; Day 28, Cohort 1: 750 mg QD MG005 plus 200 mg QD sorafenib): 6.0 (5.0–6.0) Hr; AUC0→τ,ss [5, 7]: 5553.7 ± 950.2 ng·h/mL; Cmax,ss [5, 7]: 786.0 ± 180.0 ng/mL; Tmax,ss [5, 8]: 4.0 (2.1–4.1) Hr; AUC0→τ,ss [5, 9]: 6249.6 ± 2619.6 ng·h/mL; Cmax,ss [5, 9]: 620.0 ± 382.6 ng/mL; Tmax,ss ([5]; Day 28, Cohort 3: 750 mg BID MG005 plus 200 mg QD sorafenib): 14.0 (0.0–23.9) Hr; bioavailability ([5]; patients, oral): low bioavailability; absorption ([5]; patients, 750 mg QD to 1500 mg QD gave no significant increase in bioavailability): poor absorption; half-life ([5]; patients, compared to sorafenib): significantly shorter half-life when compared to sorafenib

Question: With CNC(=O)c1cc(Oc2ccc(NC(=O)Nc3ccc(Cl)c(C(F)(F)F)c3)cc2)ccn1 [sorafenib, reference compound] as the compound, how does the “Tmax,ss” value [5, 8] read?
Answer: 8.0 (2.1–23.5) Hr

Question: What about the AUC ([5]; human, plasma, oral, Day 28, Cohort 1: 750 mg QD MG005 plus 200 mg QD sorafenib, mean ± SD) of the same compound?
Answer: 88600 ng·h/mL

Question: And the AUC ([5]; human, plasma, oral, Day 28, Cohort 2: 1500 mg QD MG005 plus 200 mg QD sorafenib, mean ± SD)?
Answer: 51400 ng·h/mL

Question: And the AUC ([5]; human, plasma, oral, Day 28, Cohort 3: 750 mg BID MG005 plus 200 mg QD sorafenib, mean ± SD)?
Answer: 30600 ng·h/mL

Question: What about the Cmax ([5]; human, plasma, oral, Cmax,ss, Day 28, Cohort 2: 1500 mg QD MG005 plus 200 mg QD sorafenib, mean ± SD) of the same compound?
Answer: 3730 ± 1530 ng/mL

— paper PMC9031611 (Journal of Clinical Medicine, 2022)
